Patent publication US5120729A, “Beta-lactams as antihypercholesterolemics” (Merck & Co., Inc., priority 1990, dated 1992)

Target: T1, HMG-CoA synthase (Rattus norvegicus, UniProt P17425)
T1 construct: The livers from male Charles River CD rats (225-350 g) were homogenized; from tissue; host or cells: rat liver (male Charles River CD rats), 100,000×g supernatant, ammonium sulfate precipitate, DEAE-52 fraction
T1 sequence (P17425 1-520): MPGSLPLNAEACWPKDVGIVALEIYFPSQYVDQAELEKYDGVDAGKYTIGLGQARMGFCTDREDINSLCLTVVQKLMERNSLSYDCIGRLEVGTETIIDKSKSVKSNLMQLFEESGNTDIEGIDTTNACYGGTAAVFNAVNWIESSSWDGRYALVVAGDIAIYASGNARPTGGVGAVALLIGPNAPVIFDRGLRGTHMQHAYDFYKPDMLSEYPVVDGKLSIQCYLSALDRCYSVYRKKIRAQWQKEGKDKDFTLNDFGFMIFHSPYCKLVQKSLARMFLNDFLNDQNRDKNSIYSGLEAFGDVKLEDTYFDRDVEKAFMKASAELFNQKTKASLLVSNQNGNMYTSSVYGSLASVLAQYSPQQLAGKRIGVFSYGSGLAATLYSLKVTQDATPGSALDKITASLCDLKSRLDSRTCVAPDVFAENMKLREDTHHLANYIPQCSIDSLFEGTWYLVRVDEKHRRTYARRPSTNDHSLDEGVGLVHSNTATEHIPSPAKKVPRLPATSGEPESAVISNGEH
Test: HMG-CoA synthase inhibition assay
Format: biochemical
Details: Table I; n is 1, R3 is H
Procedure: The intrinsic HMG-CoA synthase inhibition activity of the compounds of this invention is measured by the standard in vitro protocol described below:
The livers from male Charles River CD rats (225-350 g) were homogenized in 0.25M sucrose which was adjusted with phenylmethylsulfonylfluoride (PMSF) and N-p-tosyl-l-lysine chloromethyl ketone (TLCK) so that the final concentration of each was […], respectively. The homogenate was centrifuged at 15,000×g for 20 minutes, the supernatant filtered through a fine nylon screen to remove most of the fat layer and recentrifuged at 100,000×g for 1 hour. This supernatant was removed and 1M potassium phosphate, dithiothreitol (DTT) and ethylene glycolbis(β-aminoethyl ether)-N,N,N',N'-tetraacetic acid (EGTA) added to give a final concentration of 0.1M (pH 7.2), 0.5 mM and 0.1 mM, respectively. Solid ammonium sulfate was added to 50% saturation to the protein solution, it was centrifuged at 15,000×g and the supernatant discarded. This precipitated protein could be stored at -70° C. for at least one month with very little loss of activity. The ammonium sulfate precipitate was dissolved in an minimal amount of 0.06M potassium phosphate buffer (pH 7.2) containing 0.5 mM dithiothreitol and 0.1 mM EGTA (referred to as 0.06M phosphate buffer) and dialyzed overnight against 2 liters of the same buffer to remove the ammonium sulfate and to inactivate HMG-CoA lyase [Clinkenbeard, et al., J. Biol. Chem. 250, 3108-3116(1975)].
The dialyzed extract was added to a column of DEAE-52 (Whatman) which had been equilibrated with 0.06M phosphate buffer (10 mg of protein to 1 ml bed volume of the resin). The DEAE-cellulose was eluted with 0.06M phosphate buffer until the optical density at 280 nm was essentially zero. This fraction contained the β-ketoacetyl-CoA thiolase activity. The HMG-CoA synthase was eluted from the column with 0.1M phosphate buffer (pH 7.2) containing 0.5 mM DTT and 0.1 mM EGTA, and was virtually free of all thiolase activity. The protein was precipitated by the addition of ammonium sulfate to give 50% saturation. This solution was stirred for 10 minutes at 4° C. and the precipitate collected by centrifugation at 15,000 rpm for 10 minutes. The supernatant was discarded and the precipitate dissolved in a minimum of 0.06M phosphate buffer, pH 7.2 (about 10 ml) and the enzyme stored at -80° C.
HMG-CoA Synthase Inhibition Assay
Enzyme protein (ca. 24 mg) was added to a solution containing […] (pH 8.0), 11.7 μM MgCl2, 1.17 μM ethylenediaminetetraacetic acid (EDTA), 0.58 μM dithiothreitol, and the indicated concentrations of the test compound (added as a 2 mg/ml solution in dimethylsulfoxide). The incubation took place in a volume of 0.085 ml at 30° in a shaking water bath. After 5 minutes, […] of a solution containing acetoacetyl-CoA and 0.1 μCi of 1-[^14 C]-acetyl-CoA was added to give a final concentrations of 0.1 and 0.4 μM, respectively. The incubation was continued for 10 more minutes and the reaction stopped by the addition of […] of the assay mixture to 0.2 ml of 6N HCl in a glass scintillation vial. The vial was heated for 1 hour at 120° after which time 0.2 ml more of 6N HCl was again added to each vial and the heating continued for another hour. Following this, 1.0 ml of 0.9% saline was added to each vial and finally 10 ml of scintillation liquid. Radioactivity was determined in a Packard Tri-Carb liquid scintillation counter.
Percent inhibition is calculated by the formula: [formula]
IC50 values were determined by plotting the log of the concentration of the test compound verses the percentage inhibition and fitting a straight line to the resulting data by using the least squares method.

Structure (SMILES) | IC50
Cc1ccc(S(=O)(=O)N2C(=O)C[C@H]2CSc2ccccc2)cc1 [Table I i), (4S)-4-Thiophenoxymethyl-N-toluenesulfonyl-2-azetidinone] | 70 nM
Cc1ccc(S(=O)(=O)N2C(=O)C[C@H]2C[S+]([O-])c2ccccc2)cc1 (stereo partly drawn) [Table I ii)] | 120 nM
Cc1ccc(S(=O)(=O)N2C(=O)C[C@H]2CS(=O)(=O)c2ccccc2)cc1 [Table I iii), (4S)-4-Phenylsulfonymethyl-N-toluenesulfonyl-2-azetidinone] | 120 nM
COC(=O)c1ccc(OC[C@@H]2CC(=O)N2S(=O)(=O)c2ccc(C)cc2)cc1 [Table I iv), (4S)-4-p-Methoxycarbonylphenoxymethyl-N-toluenesulfonyl-2-azetidinone] | 46 nM
Cc1ccc(S(=O)(=O)N2C(=O)C[C@H]2CI)cc1 [Table I v)] | 820 nM

Same assay, conditions: Table II; n is 1, R3 is C1-5 alkyl

Structure (SMILES) | IC50
CC[C@@H]1C(=O)N(S(=O)(=O)c2ccc(C)cc2)[C@@H]1CSc1ccccc1 (relative stereo) [Table II i)] | 120 nM
CC[C@@H]1C(=O)N(S(=O)(=O)c2ccc(C)cc2)[C@@H]1COC (relative stereo) [Table II ii), (±)-cis-3-Ethyl-4-methoxymethyl-N-toluenesulfonyl-2-azetidinone] | 67 nM
CC[C@@H]1C(=O)N(S(=O)(=O)c2ccc(C)cc2)[C@@H]1CF (relative stereo) [Table II iii), (±)-cis-3-Ethyl-4-fluoromethyl-N-toluenesulfonyl-2-azetidinone] | 60 nM

Same assay, conditions: Table III; n is 2, R3 is H

Structure (SMILES) | IC50
COC(=O)c1ccc(OCCC2CC(=O)N2S(=O)(=O)c2ccc(C)cc2)cc1 (racemic) [Table III i), (±)-4-(2-p-Methoxycarbonylphenoxy)ethyl-N-toluenesulfonyl-2-azetidinone] | 66 nM
Cc1ccc(S(=O)(=O)N2C(=O)CC2CCOCc2ccccc2)cc1 (racemic) [Table III ii), (±)-4-(2-Benzyloxy)ethyl-N-toluenesulfonyl-2-azetidinone] | 90 nM
Cc1ccc(S(=O)(=O)N2C(=O)CC2CCOC(c2ccccc2)c2ccccc2)cc1 (racemic) [Table III iii), (±)-4-(2-Diphenylmethoxy)ethyl-N-toluenesulfonyl-2-azetidinone] | 61 nM

Same assay, conditions: Table IV; n is 2, R3 is CH3CH2 or CH3OCH2

Structure (SMILES) | IC50
CC[C@@H]1C(=O)N(S(=O)(=O)c2ccc(C)cc2)[C@@H]1CCOc1ccc(C(=O)OC)cc1 (relative stereo) [Table IV i), (±)-cis-3-Ethyl-4-(2-p-methoxycarbonylphenoxy)ethyl-N-toluenesulfonyl-2-azetidinone] | 65 nM
COC[C@H]1C(=O)N(S(=O)(=O)c2ccc(C)cc2)[C@@H]1CCOc1ccc(C(=O)OC)cc1 (relative stereo) [Table IV ii)] | 1400 nM
CC[C@@H]1C(=O)N(S(=O)(=O)c2ccc(C)cc2)[C@@H]1CCS(=O)(=O)c1ccccc1 (relative stereo) [Table IV iii), (±)-3-Ethyl-4-(2-phenylsulfonyl)ethyl-N-toluenesulfonyl-2-azetidinone] | 640 nM

Same assay, conditions: Table V; n is 3, R3 is H

Structure (SMILES) | IC50
COC(=O)c1ccc(OCCCC2CC(=O)N2S(=O)(=O)c2ccc(C)cc2)cc1 (stereo not drawn) [Table V i)] | 190 nM
Cc1ccc(S(=O)(=O)N2C(=O)CC2CCCOc2ccccc2)cc1 (stereo not drawn) [Table V ii)] | 140 nM
Cc1ccc(S(=O)(=O)N2C(=O)CC2CCCBr)cc1 (stereo not drawn) [Table V iii)] | 130 nM

Same assay, conditions: Table VI; n is 4

Structure (SMILES) | IC50
COCC1C(=O)N(S(=O)(=O)c2ccc(C)cc2)C1CCCCC(C)CC(C)=CC(C)=CC(=O)OC [Table VI i), (3R,4R,5'R)-(E,E)-3-Methoxymethyl-4-(10'-methoxycarbonyl-5',7',9'-trimethyl-7',9'-decadienyl)-N-toluensulfonyl-2-azetidinone] | 3600 nM
